The numbers were not newly measured in patent US7220434B2, “Dual-release compositions of a cyclooxygenase-2 inhibitor” (Pharmacia Corporation (of Pfizer, Inc.), priority 2000, dated 2007), which cites them from elsewhere.

The structures appear in SMILES notation.

The conditions of data set [1]: conventionally formulated for oral delivery.

On to `Cc1ccc(-c2cc(C(F)(F)F)nn2-c2ccc(S(N)(=O)=O)cc2)cc1` [celecoxib, 4-[5-(4-methylphenyl)-3-(trifluoromethyl)-1H-pyrazol-1-yl]benzenesulfonamide], for which the solubility in water result is given as “low solubility in water”. The “solubility in aqueous media” value (aqueous media) was “unusually insoluble”. Take `COc1ccc(-c2cc(C(F)F)nn2-c2ccc(S(N)(=O)=O)cc2)cc1F` [deracoxib]: the solubility in water result is reported as “low solubility in water”. As to `CS(=O)(=O)c1ccc(C2=C(c3ccccc3)C(=O)OC2)cc1` [rofecoxib, 3-phenyl-4-[4-(methylsulfonyl)phenyl]-5H-furan-2-one], the solubility in water entry is recorded as “low solubility in water”. Besides, the half-life result in data set [1] is listed as “sufficient to provide therapeutic benefit over a 24-hour period”. On to `Cc1onc(-c2ccccc2)c1-c1ccc(S(N)(=O)=O)cc1` [valdecoxib, 4-[5-methyl-3-phenylisoxazol-4-yl]benzenesulfonamide], for which the solubility in water result was “low solubility in water”.
